Measured values: PMC12682947, “Identification of New KCNT1‐Epilepsy Drugs by In Silico, Cell, and Drosophila Modeling” (Annals of Neurology, 2025)
Counter-ions that a name gives are not always drawn.

Target: T1, WT and mutant human KCNT1 channels (Homo sapiens, UniProt Q5JUK3)
T1 sequence (Q5JUK3 1-1230): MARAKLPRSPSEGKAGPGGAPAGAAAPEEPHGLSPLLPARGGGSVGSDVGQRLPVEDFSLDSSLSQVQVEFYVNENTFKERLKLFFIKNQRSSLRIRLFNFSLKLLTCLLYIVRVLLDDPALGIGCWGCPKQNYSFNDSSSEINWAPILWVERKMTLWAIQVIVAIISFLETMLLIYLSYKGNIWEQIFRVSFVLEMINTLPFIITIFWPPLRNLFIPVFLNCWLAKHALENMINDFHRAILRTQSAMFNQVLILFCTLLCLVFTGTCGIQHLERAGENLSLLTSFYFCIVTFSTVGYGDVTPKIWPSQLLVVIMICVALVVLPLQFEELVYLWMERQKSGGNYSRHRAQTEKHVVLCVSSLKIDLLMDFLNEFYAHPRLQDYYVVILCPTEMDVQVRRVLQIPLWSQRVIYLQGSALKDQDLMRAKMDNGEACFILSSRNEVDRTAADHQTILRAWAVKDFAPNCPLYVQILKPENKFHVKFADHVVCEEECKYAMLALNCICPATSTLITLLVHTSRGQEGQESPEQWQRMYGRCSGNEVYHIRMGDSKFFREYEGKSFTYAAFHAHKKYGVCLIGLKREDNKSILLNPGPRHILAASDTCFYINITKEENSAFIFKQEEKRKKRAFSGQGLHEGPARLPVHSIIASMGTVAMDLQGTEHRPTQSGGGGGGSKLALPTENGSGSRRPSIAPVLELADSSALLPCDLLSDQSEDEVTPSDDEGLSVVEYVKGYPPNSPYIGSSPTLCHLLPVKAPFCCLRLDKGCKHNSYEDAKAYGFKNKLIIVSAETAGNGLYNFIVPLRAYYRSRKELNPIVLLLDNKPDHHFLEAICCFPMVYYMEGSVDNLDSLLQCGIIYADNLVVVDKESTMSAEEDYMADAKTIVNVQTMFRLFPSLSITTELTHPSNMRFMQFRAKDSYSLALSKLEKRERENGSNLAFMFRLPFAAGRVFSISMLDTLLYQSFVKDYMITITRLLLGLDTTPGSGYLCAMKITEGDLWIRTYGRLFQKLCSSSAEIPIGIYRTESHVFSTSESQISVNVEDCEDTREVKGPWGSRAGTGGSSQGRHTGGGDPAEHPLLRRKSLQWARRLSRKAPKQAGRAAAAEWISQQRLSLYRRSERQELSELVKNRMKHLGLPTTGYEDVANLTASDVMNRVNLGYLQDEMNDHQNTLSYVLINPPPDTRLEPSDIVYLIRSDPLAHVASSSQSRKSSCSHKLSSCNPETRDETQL
Experiment: Inside-out patch clamp, statements pooled over WT and mutant channels
Assay type: cell-based
Conditions: inside-out patches; for inhibition at 0.25 µM: 250 nM
Protocol: The CHO cells were cultured in Dulbecco's modified Eagle's Medium (ThermoFisher, UK) supplemented with 10% (v/v) fetal bovine serum, 50 U/ml penicillin and 0.05 mg/ml streptomycin, and incubated at 37°C in 5% CO2 atmosphere. For whole cell recording of WT/Y796H KCNT1, CHO cells were transiently co‐transfected with concatemeric WT/Y796H and EYFP, as described previously.[29] For electrophysiological experiments, cells were plated onto borosilicate glass cover slips and used 2 to 4 days later. Human embryonic kidney 293T cells (HEK293T) were cultured in the same manner, but with medium supplemented with 2 mM L‐glutamine, and 1% (v/v) nonessential amino acids. For excised inside‐out recording of homomeric WT or mutant YFP‐tagged KCNT1, HEK293T cells plated on glass cover slips were transfected using Attractene Transfection Reagent (Qiagen, Germany) according to the manufacturer's instructions and used 2 to 3 days later.
Inside‐out patch clamp recordings were made at room temperature (23°C) from transiently transfected HEK293T cells, as described previously.[11] The pipette solution contained, in mM, 140 NaCl, 4 KCl, 2 CaCl2, 2 MgCl2, and 10 HEPES adjusted to pH 7.4 with NaOH. After achieving the inside‐out configuration, the intracellular face of the membrane was constantly perfused with a solution containing, in mM, 35 NaCl, 110 KCl, 0.2 EGTA, and 10 HEPES adjusted to pH 7.3 with KOH. Drug stock solutions of 5 to 20 mM in DMSO were first diluted in ethanol (1:10) and then in electrophysiological solution. KCNT1 currents were recorded using 2 voltage protocols, depending on the number of active channels in the patch before drug application. Macroscopic currents (number of active channels > 15) were recorded in response to 100 ms voltage ramps between −120 and 120 mV applied every 2 seconds from a holding potential of −78 mV. The average current amplitudes between 0 and 40 mV were used for the analyses and constructing the concentration‐response curves. With a lower number of active channels in the patch (3–15), current traces were recorded in response to 15‐second voltage steps to −20, 0, and 20 mV from a holding potential of −78 mV. Currents recorded at each voltage and each drug concentration were averaged over the duration of the trace and normalized to the average amplitudes of the corresponding current traces in drug‐free solution. The normalized data for all 3 voltage steps were then averaged for each drug concentration and used to build the concentration‐response curves (see Supplementary Fig S3). To determine the IC50, data were fitted with the Hill equation, as described previously.[11] Single channel data were analyzed using Ana software developed by Dr Michael Pusch (Istituto di Biofisica, Genova, Italy; http://users.ge.ibf.cnr.it/pusch/programs-mik.htm). […]

SMILES	inhibition at 0.25 µM	inhibition at 0.3 µM (300 nM, read-out: inhibition of single KCNT1 channels)	IC50 (read-out: direct IC50 on single KCNT1 channels)
O=C(OCCN1CCN(c2cccc(C(F)(F)F)c2)CC1)c1ccccc1Nc1ccnc2cc(C(F)(F)F)ccc12 [antrafenine]	80 to 90%	~90%	~10 nM
Cc1c(O)cccc1C(=O)N[C@@H](CSc1ccccc1)[C@H](O)CN1C[C@H]2CCCC[C@H]2C[C@H]1C(=O)NC(C)(C)C [nelfinavir mesylate]	80 to 90%		
